Assay results as given in patent US20210369812A1, “OSTEOINDUCTIVE PEPTIDES, COMPOSITIONS, IMPLANTS, AND METHODS OF USE” (The Board of Regents of the University of Oklahoma, priority 2018, published 2021).
Entries after “also recorded” stand apart in the source; their conditions may differ.

How the values were obtained:
[1] = test system: human mesenchymal stem cells (hMSCs); test: Live cell binding through immunofluorescence; assay type: cell-based; details: 10^12 phages/ml
Procedure: Human mesenchymal stem cells (hMSCs) were grown to roughly 60% plate coverage in a 48-well tissue culture plate according to the company Lonza's culturing protocols. […] The hMSCs were then blocked with 0.5% BSA (dissolved in cell media) for 1 hour. The cell media for the hMSCs was then replaced with 1 ml of new cell media having of concentration of 10^12 phages/ml. Next, the plates were washed once with 400 μl of phosphate buffered saline (PBS) at a pH of 7.4. The hMSCs were then incubated with Anti-M13 Bacteriophage Coat Protein g8p antibody [RL-ph2] (ab9225) at a 1:1000 dilution in cell media (200 μl per well). The wells were then washed again with PBS (400 μl per wash). Next, the hMSCs were incubated with the secondary antibody, Goat-anti mouse AF-488 (Abcam) for 1 hour (1 ug/ml final concentration of antibody in media). The wells were then washed again with PBS (400 μl per wash). A Hoechst nuclear stain was used to stain the nuclei (PureBlu™ Hoechst 33342 Nuclear Staining Dye #1351304 from BioRad) according to the company's protocol. Cell Mask™ Orange Plasma Membrane Stain was used to stain membranes (CellMask™ Orange Plasma Membrane Stain Catalog number: C10045 from Thermo Fisher Scientific) according to the company's protocol. The phages binding to the cells were then imaged on a Nikon Eclipse Ti fluorescent microscope.

BMPR1A = molecular target: T1, BMPR1A (Homo sapiens, UniProt P36894); test: Enzyme-linked immune sorbent assay for receptor binding (BMPR1A); details: peptide on p3 of M13 phage; absorbance 450 nm; n=4; vs wild type phage
T1 construct: purchased G&P Biosciences
T1 sequence (P36894 24-152 limits assumed): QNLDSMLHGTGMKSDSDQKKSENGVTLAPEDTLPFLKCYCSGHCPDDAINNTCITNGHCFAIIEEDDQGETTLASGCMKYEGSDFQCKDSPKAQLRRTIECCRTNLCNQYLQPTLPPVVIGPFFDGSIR
Description: Groups having the same lowercase letter assigned (above the bar) were not statistically different from each other. Groups having different letters assigned (above the bar) were statistically different from each other. […] The primary antibody was mouse anti-g3p (p8) IgG. The secondary antibody was anti-mouse IgG conjugated with horseradish peroxidase. The substrate, 3,3′,5,5′-Tetramethylbenzidine was detected at 450 nm after stopping the reaction with 1 M HCl.
Blocking buffer (0.1 M NaHCO3 (pH 8.6), 5 mg/ml BSA. Filter sterilized, stored at 4° C.) was prepared. TBS (50 mM Tris-HCl (pH 7.5), 150 mM NaCl, autoclaved, stored at room temperature) was prepared. Separate solutions of the target receptors were then made. For BMPR1A, a 10 μg/ml stock solution was made. For BMPR2, a 10 μg/ml solution was also made. Separate wells with n=4 for each different peptide bearing phage group were then coated with one of the receptors. The coating was done by adding 100 μl of the target solution to wells of a 96-well plate followed by swirling until the surface was completely wet. The plates were then allowed to incubate overnight at 4° C. with gentle agitation in a humidified container (a plastic box lined with damp paper towels). Any excess target solution was then removed, and the plate was slapped face-down on a clean paper towel. The wells of the plate were then blocked with 200 μl of blocking buffer for 1 hour at room temperature. […] The blocking buffer was then removed from each plate followed by 5 washes with 200 μl of TBST. Each time the plate was slapped against a clean section of paper towel face-down. […] After a brief pilot test, it should be noted that using 10^10 phage/ml was determined to work best, but other concentrations of virus also worked consistently. […] Then, […] of freshly prepared 3,3′,5,5′-Tetramethylbenzidine (TMB) was added to each well and the absorbance at 370 nm and 652 nm was monitored for 1 hour using an ELISA plate reader. […] The absorbance at 450 nm for each well was then measured.

hMSCs = test: qPCR of osteoblast marker genes; assay type: cell-based, human; details: 26 days on phage films; normalized to GAPDH; relative to negative control (basal media)
Procedure: Gene expression was normalized to the reference gene, GAPDH. All fold changes are relative to a negative control (basal media with no peptides or phage) which represents the baseline at zero-fold change. […] All data represent the mean±standard deviation. (*P≤0.05, **P≤0.01, ***P≤0.001).
hMSCs were seeded (1×10^3 cells per culture plate) on to phage films as well as relevant control plates. The cells were then cultured for 26 days. The cells then were processed with a Power SYBR™ Green Cells-to-CT™ Kit. The number of cells was adjusted to be 5×10^3 cells per lysis reaction. All other parameters were kept the same as the manufacturer's protocol for this kit. The gene expression of osteopontin, osteocalcin, and collagen type 1A were measured as a fold change normalized to the reference gene GAPDH and a negative control (basal media+ cells but no phage) such that the baseline at zero-fold change represents the negative control. For temperature cycling and measuring CT values, a MiniOpticon Real Time PCR System was used.

Sequence | Binding of peptide-bearing phages to live hMSCs [1] | Relative binding strength in ELISA to BMPR1A (BMPR1A) | Osteopontin gene expression, fold change (hMSCs)
SGTQDSMVGWNK (Completely synthesized in the lab - Ph.D.-12 Phage Display Peptide Library Kit (New England Biolabs)) | bound to what appeared to be the same location as the outer membrane; also recorded: demonstrated an ability to bind to the outer membrane | best binders | greater osteopontin production than the wild type, but not greater than the Lonza osteogenic media; also recorded: statistically significant advantage over the wild type phage films
VHVPLHRGAVSA (Completely synthesized in the lab - Ph.D.-12 Phage Display Peptide Library Kit (New England Biolabs)) | bound to what appeared to be the same location as the outer membrane; also recorded: demonstrated an ability to bind to the outer membrane | best binders | greater osteopontin production than the Lonza osteogenic media; also recorded: statistically significant advantage over the wild type phage films; also recorded: statistically significant advantage over the positive control
